Data published in patent US9359377B2, “Substituted imidazo[1,2-a]imidazo[4′,5′:4,5]pyrrolo[1,2-d]pyrazines for treating respiratory syncytial virus infections” (Biota Scientific Management Pty Ltd., priority 2011, dated 2016).
Like-named read-outs stand apart in the source and are kept apart here.

System: RSV A2
Assay: RSV antiviral cytopathic effect (CPE) assay in HEp2 cells, MTT readout
Format: cell-based, respiratory syncytial virus
Settings: HEp2 cells infected with RSV A2, moi ~0.01, 5 days, inhibition of CPE by 50%, read-out: Activity Range (RSV A2 EC50 mean values)
Description: RSV Antiviral Assay Protocol
Compounds of the invention were tested for their antiviral activity against respiratory syncytial virus. Cytopathic effect (CPE) assays were performed essentially as described in the literature (see, for example, Watanabe et al, 1994, J. Virological Methods, 48:257). Serial dilutions of the test compounds were made in 96 well plates. HEp2 cells (1.0×10^4 cells/well) were infected with RSV at a low multiplicity of infection (e.g. RSV A2 at an moi of ˜0.01) and added to plates to assess antiviral activity. Uninfected HEp2 cells were used to assess compound cytotoxicity. Assays were incubated for 5 days at 37° C. in a 5% CO2 atmosphere. The extent of CPE was determined via metabolism of the vital dye 3-(4,5-dimethylthiaxol-2-yl)-2,5-diphenyltetrazolium bromide (MTT). MTT (1 mg/ml) was added to each well and plates incubated for 2 hours incubation at 37° C. Wells were aspirated, iso-propanol (200 μL) was added and absorbance values read at 540/650 nm. Compound concentrations that inhibited CPE by 50% (EC50) and developed cytotoxicity (CC50) were calculated using non-linear regression analysis.
In the inventors' experience, replicate EC50 values usually fall within three standard deviations of the mean.

[1] = human respiratory syncytial virus, HEp-2, 120 h

Row | Compound | EC50 [1] [nM] | EC50 [nM]
1 | COc1ccc(C23Cn4c(cc5occc54)C(=O)N2CCN3C(=O)c2conc2C)cc1 (stereo not drawn) [Compound 3, 5a-(4-methoxyphenyl)-6-[(3-methyl-1,2-oxazol-4-yl)carbonyl]-5a,6,7,8-tetrahydro-5H,10H-furo[2′,3′:4,5]pyrrolo[1,2-a]imidazo[1,2-d]pyrazin-10-one] | 50 to 99 | –
2 | O=C1c2cc3ccsc3n2CC2(c3ccc(F)cc3)N1CCN2C(=O)C1CC1 (stereo not drawn) [Compound 16, 1-(cyclopropylcarbonyl)-11a-(4-fluorophenyl)-2,3,11,11a-tetrahydro-1H,5H-imidazo[1,2-a]thieno[3′,2′:4,5]pyrrolo[1,2-d]pyrazin-5-one] | > 10000 | –
3 | O=C(NCc1ccccc1)N1CCN2C(=O)c3cc4ccsc4n3CC12c1ccc(F)cc1 (stereo not drawn) [Compound 23, N-benzyl-11a-(4-fluorophenyl)-5-oxo-2,3,11,11a-tetrahydro-1H,5H-imidazo[1,2-a]thieno[3′,2′:4,5]pyrrolo[1,2-d]pyrazine-1-carboxamide] | > 10000 | –
4 | COc1ccc(C23Cn4c(cc5ccccc54)C(=O)N2CCN3C(=O)c2conc2C)cc1 (stereo not drawn) [Compound 4, 12a-(4-methoxyphenyl)-1-[(3-methyl-1,2-oxazol-4-yl)carbonyl]-2,3,12,12a-tetrahydro-1H,5H-imidazo[1′,2′:4,5]pyrazino[1,2-a]indol-5-one] | ≤ 49 | –
5 | 11a-(4-fluorophenyl)-1-(furan-2-ylacetyl)-2,3,11,11a-tetrahydro-1H,5H-imidazo[1,2-a]thieno[3′,2′:4,5]pyrrolo[1,2-d]pyrazin-5-one [Compound 22] | – | > 10000
6 | COc1ccc(C23Cn4c(cc5cccnc54)C(=O)N2CCN3C(=O)c2conc2C)cc1 (stereo not drawn) [Compound 8, 12a-(4-methoxyphenyl)-1-[(3-methyl-1,2-oxazol-4-yl)carbonyl]-2,3,12,12a-tetrahydro-1H,5H-imidazo[1,2-a]pyrido[3′,2′:4,5]pyrrolo[1,2-d]pyrazin-5-one] | ≤ 49 | –
7 | Cc1ccc(C23Cn4c(cc5ccsc54)C(=O)N2CCN3C(=O)c2conc2C)cn1 (stereo not drawn) [Compound 13, 1-[(3-methyl-1,2-oxazol-4-yl)carbonyl]-11a-(6-methylpyridin-3-yl)-2,3,11,11a-tetrahydro-1H,5H-imidazo[1,2-a]thieno[3′,2′:4,5]pyrrolo[1,2-d]pyrazin-5-one] | ≤ 49 | –
8 | COc1ccc(C23Cn4c(cc5sccc54)C(=O)N2CCN3C(=O)c2conc2C)cc1 (stereo not drawn) [Compound 5, 5a-(4-methoxyphenyl)-6-[(3-methyl-1,2-oxazol-4-yl)carbonyl]-5a,6,7,8-tetrahydro-5H,10H-imidazo[1,2-a]thieno[2′,3′:4,5]pyrrolo[1,2-d]pyrazin-10-one] | 100 to 499 | –
9 | Cc1cc(C(=O)N2CCN3C(=O)c4cc5ccsc5n4CC23c2ccc(F)cc2)no1 (stereo not drawn) [Compound 18, 11a-(4-fluorophenyl)-1-[(5-methyl-1,2-oxazol-3-yl)carbonyl]-2,3,11,11a-tetrahydro-1H,5H-imidazo[1,2-a]thieno[3′,2′:4,5]pyrrolo[1,2-d]pyrazin-5-one] | > 10000 | –
10 | Cc1ocnc1C(=O)N1CCN2C(=O)c3cc4ccsc4n3CC12c1ccc(F)cc1 (stereo not drawn) [Compound 21, 11a-(4-fluorophenyl)-1-[(5-methyl-1,3-oxazol-4-yl)carbonyl]-2,3,11,11a-tetrahydro-1H,5H-imidazo[1,2-a]thieno[3′,2′:4,5]pyrrolo[1,2-d]pyrazin-5-one] | 100 to 499 | –
11 | Cc1nocc1C(=O)N1CCN2C(=O)c3cc4cccnc4n3CC12c1ccc(F)cc1 (stereo not drawn) [Compound 11, 12a-(4-fluorophenyl)-1-[(3-methyl-1,2-oxazol-4-yl)carbonyl]-2,3,12,12a-tetrahydro-1H,5H-imidazo[1,2-a]pyrido[3′,2′:4,5]pyrrolo[1,2-d]pyrazin-5-one] | ≤ 49 | –
12 | CC(C)C(=O)N1CCN2C(=O)c3cc4ccsc4n3CC21c1ccc(F)cc1 (stereo not drawn) [Compound 17, 11a-(4-fluorophenyl)-1-(2-methylpropanoyl)-2,3,11,11a-tetrahydro-1H,5H-imidazo[1,2-a]thieno[3′,2′:4,5]pyrrolo[1,2-d]pyrazin-5-one] | > 10000 | –
13 | O=C1c2cc3ccsc3n2CC2(c3ccc(F)cc3)N1CCN2C(=O)C1CCCCC1 (stereo not drawn) [Compound 14, 1-(cyclohexylcarbonyl)-11a-(4-fluorophenyl)-2,3,11,11a-tetrahydro-1H,5H-imidazo[1,2-a]thieno[3′,2′:4,5]pyrrolo[1,2-d]pyrazin-5-one] | > 10000 | –
14 | O=C(NC1CCCCC1)N1CCN2C(=O)c3cc4ccsc4n3CC12c1ccc(F)cc1 (stereo not drawn) [Compound 24, N-cyclohexyl-11a-(4-fluorophenyl)-5-oxo-2,3,11,11a-tetrahydro-1H,5H-imidazo[1,2-a]thieno[3′,2′:4,5]pyrrolo[1,2-d]pyrazine-1-carboxamide] | > 10000 | –
15 | O=C1c2cc3ccsc3n2CC2(c3ccc(F)cc3)N1CCN2S(=O)(=O)Cc1ccccc1 (stereo not drawn) [Compound 26, 1-(benzylsulfonyl)-11a-(4-fluorophenyl)-2,3,11,11a-tetrahydro-1H,5H-imidazo[1,2-a]thieno[3′,2′:4,5]pyrrolo[1,2-d]pyrazin-5-one] | > 10000 | –
16 | Cc1nocc1C(=O)N1CCN2C(=O)c3cc4ncccc4n3CC12c1ccc(F)cc1 (stereo not drawn) [Compound 12, 12a-(4-fluorophenyl)-1-[(3-methyl-1,2-oxazol-4-yl)carbonyl]-2,3,12,12a-tetrahydro-1H,5H-imidazo[1,2-a]pyrido[2′,3′:4,5]pyrrolo[1,2-d]pyrazin-5-one] | 100 to 499 | –
17 | O=C1c2cc3ccsc3n2CC2(c3ccc(F)cc3)N1CCN2S(=O)(=O)c1ccc([N+](=O)[O-])cc1 (stereo not drawn) [Compound 27, 11a-(4-fluorophenyl)-1-[(4-nitrophenyl)sulfonyl]-2,3,11,11a-tetrahydro-1H,5H-imidazo[1,2-a]thieno[3′,2′:4,5]pyrrolo[1,2-d]pyrazin-5-one] | 500 to 10000 | –
18 | O=C(c1ccco1)N1CCN2C(=O)c3cc4ccsc4n3CC12c1ccc(F)cc1 (stereo not drawn) [Compound 15, 11a-(4-fluorophenyl)-1-(furan-2-ylcarbonyl)-2,3,11,11a-tetrahydro-1H,5H-imidazo[1,2-a]thieno[3′,2′:4,5]pyrrolo[1,2-d]pyrazin-5-one] | > 10000 | –
19 | Cc1ccc(C23Cn4c(cc5ccsc54)C(=O)N2CCN3C(=O)c2conc2C)cc1 (stereo not drawn) [Compound 7, 1-[(3-methyl-1,2-oxazol-4-yl)carbonyl]-11a-(4-methylphenyl)-2,3,11,11 a-tetrahydro-1H,5H-imidazo[1,2-a]thieno[3′,2′:4,5]pyrrolo[1,2-d]pyrazin-5-one] | ≤ 49 | –
20 | COc1ccc(C23Cn4c(cc5[nH]c(C)nc54)C(=O)N2CCN3C(=O)c2conc2C)cc1 (stereo not drawn) [Compound 2, 5a-(4-methoxyphenyl)-2-methyl-6-[(3-methyl-1,2-oxazol-4-yl)carbonyl]-5a,6,7,8-tetrahydro-5H-imidazo[1,2-a]imidazo[4′,5′:4,5]pyrrolo[1,2-d]pyrazin-10(1H)-one] | ≤ 49 | –
21 | COc1ccc(C23Cn4c(cc5ncccc54)C(=O)N2CCN3C(=O)c2conc2C)cc1 (stereo not drawn) [Compound 9, 12a-(4-methoxyphenyl)-1-[(3-methyl-1,2-oxazol-4-yl)carbonyl]-2,3,12,12a-tetrahydro-1H,5H-imidazo[1,2-a]pyrido[2′,3′:4,5]pyrrolo[1,2-d]pyrazin-5-one] | 100 to 499 | –
22 | O=C(CC1CCCCC1)N1CCN2C(=O)c3cc4ccsc4n3CC12c1ccc(F)cc1 (stereo not drawn) [Compound 19, l-(cyclohexylacetyl)-11a-(4-fluorophenyl)-2,3,11,11a-tetrahydro-1H,5H-imidazo[1,2-a]thieno[3′,2′:4,5]pyrrolo[1,2-d]pyrazin-5-one] | > 10000 | –
23 | Cc1nocc1C(=O)N1CCN2C(=O)c3cc4ccsc4n3CC12c1ccc(F)cc1 (stereo not drawn) [Compound 6, 11a-(4-fluorophenyl)-1-[(3-methyl-1,2-oxazol-4-yl)carbonyl]-2,3,11,11a-tetrahydro-1H,5H-imidazo[1,2-a]thieno[3′,2′:4,5]pyrrolo[1,2-d]pyrazin-5-one] | ≤ 49 | –
24 | COc1ccc(C23Cn4c(cc5ccsc54)C(=O)N2CCN3C(=O)c2conc2C)cc1 (stereo not drawn) [Compound 1, 11a-(4-methoxyphenyl)-1-[(3-methyl-1,2-oxazol-4-yl)carbonyl]-2,3,11,11a-tetrahydro-1H,5H-imidazo[1,2-a]thieno[3′,2′:4,5]pyrrolo[1,2-d]pyrazin-5-one] | ≤ 49 | –
25 | Cn1nc(C(C)(C)C)cc1C(=O)N1CCN2C(=O)c3cc4ccsc4n3CC12c1ccc(F)cc1 (stereo not drawn) [Compound 20, 1-[(3-tert-butyl-1-methyl-1H-pyrazol-5-yl)carbonyl]-11a-(4-fluorophenyl)-2,3,11,11a-tetrahydro-1H,5H-imidazo[1,2-a]thieno[3′,2′:4,5]pyrrolo[1,2-d]pyrazin-5-one] | > 10000 | –
26 | Cc1ccc(C23Cn4c(cc5cccnc54)C(=O)N2CCN3C(=O)c2conc2C)cc1 (stereo not drawn) [Compound 10, 1-[(3-methyl-1,2-oxazol-4-yl)carbonyl]-12a-(4-methylphenyl)-2,3,12,12a-tetrahydro-1H,5H-imidazo[1,2-a]pyrido[3′,2′:4,5]pyrrolo[1,2-d]pyrazin-5-one] | ≤ 49 | –
27 | O=C1c2cc3ccsc3n2CC2(c3ccc(F)cc3)N1CCN2S(=O)(=O)c1ccccc1 (stereo not drawn) [Compound 25, 11a-(4-fluorophenyl)-1-(phenylsulfonyl)-2,3,11,11a-tetrahydro-1H,5H-imidazo[1,2-a]thieno[3′,2′:4,5]pyrrolo[1,2-d]pyrazin-5-one] | > 10000 | –
